Data on three molecules can be found in ChEMBL document CHEMBL3822442, “Synthesis and Pharmacological Characterization of Novel Glucagon-like Peptide-2 (GLP-2) Analogues with Low Systemic Clearance” (J Med Chem, 2016).

Calls of active or inactive are those of the source. No cut-off for these calls is given here. Non-standard residues stand in square brackets, D forms with d. Residues, ends and D or L forms follow the SMILES beside them. Nle = CCCC[C@H](N)C(=O)O

Holding throughout (type): cell-based
The target of test [1] is Glucagon receptor (Homo sapiens) (UniProt P47871). Description: Agonist activity at human GCGR expressed in HEK293 cells after 5 hrs by luciferase reporter gene assay.
Sequence of Glucagon receptor (Homo sapiens) (P47871 whole entry): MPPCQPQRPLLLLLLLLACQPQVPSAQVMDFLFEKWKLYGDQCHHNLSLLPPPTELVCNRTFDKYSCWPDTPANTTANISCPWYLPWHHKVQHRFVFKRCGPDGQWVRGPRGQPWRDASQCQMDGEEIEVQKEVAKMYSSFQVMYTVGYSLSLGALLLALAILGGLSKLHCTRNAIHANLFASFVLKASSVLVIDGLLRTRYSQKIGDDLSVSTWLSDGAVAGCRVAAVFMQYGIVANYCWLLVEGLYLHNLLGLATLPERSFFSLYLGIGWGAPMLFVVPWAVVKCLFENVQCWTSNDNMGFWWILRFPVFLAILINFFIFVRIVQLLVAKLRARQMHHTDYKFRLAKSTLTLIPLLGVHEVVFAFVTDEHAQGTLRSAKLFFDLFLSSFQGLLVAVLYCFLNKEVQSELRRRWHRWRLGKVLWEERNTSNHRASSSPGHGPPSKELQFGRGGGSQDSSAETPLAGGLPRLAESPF
The subject of another test is HEK293. The test is described as follows: Selectivity ratio of EC50 for human GLP1R expressed in HEK293 cells to EC50 for human GLP2R expressed in HEK293.
Test [2] has as its target Glucagon-like peptide 1 receptor (Homo sapiens, UniProt P43220). The test is described as follows: Agonist activity at human GLP1R expressed in HEK293 cells after 5 hrs by luciferase reporter gene assay. On the technique in general: A reporter such as luciferase makes a cellular process visible.
For test [3], the target named is T1, Glucagon-like peptide 2 receptor (Homo sapiens, UniProt O95838).
T1 sequence (O95838 whole entry): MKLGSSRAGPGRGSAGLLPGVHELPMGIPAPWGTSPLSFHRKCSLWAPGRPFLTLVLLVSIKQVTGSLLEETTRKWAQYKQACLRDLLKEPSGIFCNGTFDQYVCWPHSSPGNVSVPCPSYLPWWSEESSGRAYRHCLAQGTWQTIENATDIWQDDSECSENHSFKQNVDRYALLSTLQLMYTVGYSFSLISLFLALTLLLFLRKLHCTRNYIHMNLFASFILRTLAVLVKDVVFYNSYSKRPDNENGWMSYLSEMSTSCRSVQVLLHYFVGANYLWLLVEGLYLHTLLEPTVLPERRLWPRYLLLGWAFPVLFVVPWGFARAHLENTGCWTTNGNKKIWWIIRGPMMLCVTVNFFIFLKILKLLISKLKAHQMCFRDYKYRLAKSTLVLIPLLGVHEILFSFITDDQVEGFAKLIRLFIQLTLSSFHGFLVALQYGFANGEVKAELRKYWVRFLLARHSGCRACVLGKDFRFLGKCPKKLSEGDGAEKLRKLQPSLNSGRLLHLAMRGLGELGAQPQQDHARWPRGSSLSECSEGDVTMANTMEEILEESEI
The test is described as follows: Agonist activity at human GLP2R expressed in HEK293 cells after 5 hrs by luciferase reporter gene assay.

Test [4] concerns the target T2, Glucagon-like peptide 2 receptor (Homo sapiens) (UniProt O95838).
T2 sequence (whole entry): T1 sequence (O95838 whole entry)
Description: Potency index, ratio of compound EC50 to compound 2 EC50 for human GLP2R expressed in HEK293 cells.

Sequence of Glucagon-like peptide 1 receptor (P43220 whole entry): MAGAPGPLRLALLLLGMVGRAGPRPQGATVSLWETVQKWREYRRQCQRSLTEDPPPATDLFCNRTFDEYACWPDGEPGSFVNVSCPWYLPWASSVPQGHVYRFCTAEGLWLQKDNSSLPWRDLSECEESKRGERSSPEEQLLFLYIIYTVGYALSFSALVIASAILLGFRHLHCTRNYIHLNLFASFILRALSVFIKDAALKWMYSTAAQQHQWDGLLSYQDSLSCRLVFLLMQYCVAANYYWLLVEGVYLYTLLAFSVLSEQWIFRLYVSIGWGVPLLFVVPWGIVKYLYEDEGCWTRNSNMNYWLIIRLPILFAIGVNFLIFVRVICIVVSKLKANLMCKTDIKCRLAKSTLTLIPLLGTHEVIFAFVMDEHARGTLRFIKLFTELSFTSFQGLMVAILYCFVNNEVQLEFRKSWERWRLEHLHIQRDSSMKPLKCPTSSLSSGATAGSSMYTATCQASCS

In the case of `CCCC[C@H](NC(=O)[C@H](CCC(=O)O)NC(=O)[C@H](CC(=O)O)NC(=O)[C@H](CO)NC(=O)[C@H](Cc1ccccc1)NC(=O)[C@H](CO)NC(=O)[C@@H](C)NC(=O)[C@H](CC(=O)O)NC(=O)CNC(=O)[C@@H](N)Cc1cnc[nH]1)C(=O)N[C@@H](CC(N)=O)C(=O)N[C@H](C(=O)N[C@H](C(=O)N[C@@H](CC(C)C)C(=O)N[C@@H](CC(=O)O)C(=O)N[C@@H](CC(N)=O)C(=O)N[C@@H](CC(C)C)C(=O)N[C@@H](C)C(=O)N[C@@H](C)C(=O)N[C@@H](CCCNC(=N)N)C(=O)N[C@@H](CC(=O)O)C(=O)N[C@@H](Cc1ccccc1)C(=O)N[C@H](C(=O)N[C@@H](CC(N)=O)C(=O)N[C@@H](Cc1c[nH]c2ccccc12)C(=O)N[C@@H](CC(C)C)C(=O)N[C@H](C(=O)N[C@@H](CCC(N)=O)C(=O)N[C@H](C(=O)N[C@@H](CCCCN)C(N)=O)[C@@H](C)O)[C@@H](C)CC)[C@@H](C)CC)[C@@H](C)CC)[C@@H](C)O` (H-HGD[dA]SFSDE[Nle]NTILDNLAARDFINWLIQTK-NH2), the outcome in test [1] was inactive. In addition, the results for the Ratio EC50 (in the test with HEK293; in test [4]) were more than 5000 and 0.91, respectively. In addition, the concentration for a half-maximal effect (EC50) is more than 1000 nM in test [2] and 0.2 nM in test [3].

On to `CCCC[C@@H](NC(=O)[C@H](CCC(=O)O)NC(=O)[C@H](CC(=O)O)NC(=O)[C@H](CO)NC(=O)[C@H](Cc1ccccc1)NC(=O)[C@H](CO)NC(=O)CNC(=O)[C@H](CC(=O)O)NC(=O)CNC(=O)[C@@H](N)Cc1cnc[nH]1)C(=O)N[C@@H](CC(N)=O)C(=O)N[C@H](C(=O)N[C@H](C(=O)N[C@@H](CC(C)C)C(=O)N[C@@H](CC(=O)O)C(=O)N[C@@H](CC(N)=O)C(=O)N[C@@H](CC(C)C)C(=O)N[C@@H](C)C(=O)N[C@@H](C)C(=O)N[C@@H](CCCNC(=N)N)C(=O)N[C@@H](CC(=O)O)C(=O)N[C@@H](Cc1ccccc1)C(=O)N[C@H](C(=O)N[C@@H](CC(N)=O)C(=O)N[C@@H](Cc1c[nH]c2ccccc12)C(=O)N[C@@H](CC(C)C)C(=O)N[C@H](C(=O)N[C@@H](CCC(N)=O)C(=O)N[C@H](C(=O)N[C@@H](CCCCN)C(N)=O)[C@@H](C)O)[C@@H](C)CC)[C@@H](C)CC)[C@@H](C)CC)[C@@H](C)O`, for which the result in test [1] was inactive. Besides, the results for the Ratio EC50 (in the test on HEK293; in test [4]) were more than 4300 and 1, respectively. The values for the EC50 in test [2] and in test [3] were more than 1000 nM and 0.23 nM, respectively.

Take `CCCCC(NC(=O)[C@H](CCC(=O)O)NC(=O)[C@H](CC(=O)O)NC(=O)[C@@H](CO)NC(=O)[C@H](Cc1ccccc1)NC(=O)[C@H](CO)NC(=O)CNC(=O)[C@H](CC(=O)O)NC(=O)CNC(=O)[C@@H](N)Cc1cnc[nH]1)C(=O)N[C@@H](CC(N)=O)C(=O)N[C@H](C(=O)N[C@H](C(=O)N[C@@H](CC(C)C)C(=O)N[C@@H](CC(=O)O)C(=O)N[C@@H](CC(N)=O)C(=O)N[C@@H](CC(C)C)C(=O)N[C@@H](C)C(=O)N[C@@H](C)C(=O)N[C@@H](CCCNC(=N)N)C(=O)N[C@@H](CC(=O)O)C(=O)N[C@@H](Cc1ccccc1)C(=O)N[C@H](C(=O)N[C@@H](CC(N)=O)C(=O)N[C@@H](Cc1c[nH]c2ccccc12)C(=O)N[C@@H](CC(C)C)C(=O)N[C@H](C(=O)N[C@@H](CCC(N)=O)C(=O)N[C@H](C(=O)N[C@@H](CCCCN)C(N)=O)[C@@H](C)O)[C@@H](C)CC)[C@@H](C)CC)[C@@H](C)CC)[C@@H](C)O` (stereo not given in full): the outcome in test [1] was inactive. The Ratio EC50 was more than 5200 with HEK293 and 0.86 in test [4]. Besides, the EC50 in test [2] is more than 1000 nM; in test [3], 0.19 nM.

One may read the EC50 as the concentration that produces a half-maximal response. A higher EC50 goes with lower potency in that assay.
